From article PMC8847695 (Frontiers in Chemistry, 2022) come the findings set out here.

What all share (type): binding
What all share (details): 1 = hit, 0 = no hit

One assay addresses AAK1 (121-471) (Homo sapiens, UniProt Q2M2I8). The assay is described as follows: STD-NMR fragment screening, AAK1. How it is done:
(§1) All fragments were stored at −20°C as solids in argon flushed glass bottles. For NMR screening, fragments were weighed and dissolved in DMSO-d6 to a stock concentration of 300 mM. Mother plates were prepared with a 100 mM concentration. From these plates, daughter plates were prepared with the fragments mixed in the plates to a concentration of 50 mM for each fragment. Daughter plates were opened a maximum of eight times. The plates were argon flushed and sealed with a HT121TS (HTA) and Foil Heat Seal (Biozym).
(§2) For long time measurements, like the protein ^1H NMR spectrum, the buffer exchange was performed twice to reduce residual buffer peaks. All experiments were performed on a Bruker Avance III HDX 700 instrument, equipped with a 5 mm Prodigy TCI cryo-probehead. For every protein, a standard ^1H NMR experiment with 1 k scans and water suppression through presaturation was performed. […] The on-resonance frequency, which was determined from the ^1H NMR spectra of the protein, was between 0.5 and 0.6 ppm; 40 ppm was used as the off-resonance frequency. For an interleaved acquisition of the on- and off-resonance, a pseudo-2D scheme was applied. The saturation was done by Gaussian pulses with a length of 50 ms and 60 dB of attenuation, with an interpulse delay of 1 ms leading to an excitation bandwidth of about 42 Hz. The screening was done with 16 scans of on- and off-resonance scans each, with a 3 s saturation time. The samples contained final concentrations of 20 µM protein, 10% (^V/V) DMSO-d6, and 1 mM of each of the two fragments. A ^1H-NMR experiment was performed for each compound to act as a reference spectrum in the STD experiments. All NMR experiments were carried out at 25°C.
(§3) Fifteen of these compounds contain the same halogen twice. No compound bears mixtures of different halogen atoms. Four proteins (AAK1, CAMK1G, IDO1, and DOT1L) were screened against this HEFLib using STD-NMR. A fragment was considered a hit if the peak intensity in the difference spectrum was three times higher than the local background noise. […] Chemical compatibility and peak complementarity were assured for these mixtures. Samples containing more than two fragments were avoided to minimize the possible target competition and to decrease the risk of fragment interactions. […] The ^1H reference NMR spectrum of the mixture is shown in red for comparison. […] As fragment mixtures can lead to competitive effects between their fragments, it is not advised to use the quantification of peak mixtures for hit ranking.

The target in a further assay is T1, CAMK1G (1-320) (Homo sapiens, UniProt Q96NX5).
T1 construct: made in house; host or cells: E. coli BL21 (DE3) pLysS
Kind of assay: STD-NMR fragment screening, CAMK1G. How it is done:
as §1, §2, §3

The target in a further assay is T2, IDO1 (1-435) (Homo sapiens, UniProt P14902).
T2 construct: His-tag of pET15b with TEV site (thrombin site replaced) (cleaved yes); made in house; host or cells: E. coli Rosetta 2 (DE3) pLysS
The assay is described as follows: STD-NMR fragment screening, IDO1. How it is done:
as §1, §2, §3

Another assay concerns the target T3, DOT1L (1-416) (Homo sapiens, UniProt Q8TEK3).
T3 construct: made in house; host or cells: E. coli BL21 (DE3) pLysS
The assay is described as follows: STD-NMR fragment screening, DOT1L. How it is done: as §1, §2, §3

T3 sequence (Q8TEK3 1-416): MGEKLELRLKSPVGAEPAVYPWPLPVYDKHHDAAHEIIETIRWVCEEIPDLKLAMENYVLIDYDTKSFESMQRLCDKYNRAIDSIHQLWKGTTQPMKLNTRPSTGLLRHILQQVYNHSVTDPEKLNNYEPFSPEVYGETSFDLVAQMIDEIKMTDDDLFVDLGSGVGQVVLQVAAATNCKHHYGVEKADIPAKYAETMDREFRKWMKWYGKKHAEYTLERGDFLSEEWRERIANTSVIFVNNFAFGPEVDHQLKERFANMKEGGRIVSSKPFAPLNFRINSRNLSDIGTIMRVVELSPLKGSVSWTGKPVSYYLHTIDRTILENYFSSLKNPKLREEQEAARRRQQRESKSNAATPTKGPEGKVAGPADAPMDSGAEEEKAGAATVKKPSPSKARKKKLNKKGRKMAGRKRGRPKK
Chain of AAK1 (121-471) (Q2M2I8 46-315 limits assumed): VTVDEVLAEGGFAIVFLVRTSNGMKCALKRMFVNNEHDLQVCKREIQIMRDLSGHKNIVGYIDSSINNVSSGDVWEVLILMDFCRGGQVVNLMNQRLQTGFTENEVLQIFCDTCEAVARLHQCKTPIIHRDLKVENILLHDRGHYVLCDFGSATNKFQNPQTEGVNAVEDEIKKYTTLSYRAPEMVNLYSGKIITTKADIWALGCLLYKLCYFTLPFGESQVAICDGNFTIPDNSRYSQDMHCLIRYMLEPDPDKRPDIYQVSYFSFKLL
T1 sequence (Q96NX5 1-320): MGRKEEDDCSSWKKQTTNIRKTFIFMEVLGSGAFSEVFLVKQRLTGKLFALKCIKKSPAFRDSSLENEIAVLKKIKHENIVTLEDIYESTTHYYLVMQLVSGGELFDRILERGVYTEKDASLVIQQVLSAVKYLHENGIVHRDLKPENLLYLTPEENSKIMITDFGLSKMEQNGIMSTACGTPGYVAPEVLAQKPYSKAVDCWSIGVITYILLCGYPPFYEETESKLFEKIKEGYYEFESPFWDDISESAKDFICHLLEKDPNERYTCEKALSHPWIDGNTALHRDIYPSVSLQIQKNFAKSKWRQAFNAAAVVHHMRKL
T2 sequence (P14902 whole entry): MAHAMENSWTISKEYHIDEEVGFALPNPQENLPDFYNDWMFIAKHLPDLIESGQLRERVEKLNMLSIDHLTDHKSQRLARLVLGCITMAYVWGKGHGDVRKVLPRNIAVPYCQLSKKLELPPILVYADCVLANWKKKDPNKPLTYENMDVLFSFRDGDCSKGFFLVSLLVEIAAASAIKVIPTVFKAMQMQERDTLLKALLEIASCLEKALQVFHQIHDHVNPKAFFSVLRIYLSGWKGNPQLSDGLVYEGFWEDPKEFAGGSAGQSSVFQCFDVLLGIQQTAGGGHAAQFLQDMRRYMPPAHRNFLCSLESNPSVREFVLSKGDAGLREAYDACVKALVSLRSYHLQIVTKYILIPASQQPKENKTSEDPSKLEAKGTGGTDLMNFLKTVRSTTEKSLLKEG

As to `COCn1nc(Br)[nH]c1=O` [Fragment B02290404], the “AAK1 (STD-NMR hit flag)” value at AAK1 (121-471) is listed as 0. Further, at CAMK1G (1-320), the “CAMK1G (STD-NMR hit flag)” value is listed as 0. The “IDO1 (STD-NMR hit flag)” value at IDO1 (1-435) came to 0. At DOT1L (1-416), the “DOT1L (STD-NMR hit flag)” value came to 0.
In the case of `Brc1cnc(C2OCCO2)s1` [Fragment B02290407], the “AAK1 (STD-NMR hit flag)” value at AAK1 (121-471) is on record as 1. Further, the “CAMK1G (STD-NMR hit flag)” value on CAMK1G (1-320) is given as 0. Further, the “IDO1 (STD-NMR hit flag)” value on IDO1 (1-435) is 0. Also, at DOT1L (1-416), the “DOT1L (STD-NMR hit flag)” value worked out at 0.
Take `O=C(O)C(=O)Nc1ccc(Cl)cn1` [Fragment B02290408]: at AAK1 (121-471), the “AAK1 (STD-NMR hit flag)” value is recorded as 0. Also, at CAMK1G (1-320), the “CAMK1G (STD-NMR hit flag)” value is 0. Also, the “IDO1 (STD-NMR hit flag)” value on IDO1 (1-435) stood at 0. Also, at DOT1L (1-416), the “DOT1L (STD-NMR hit flag)” value is reported as 0.
As for `Cc1n[nH]c(C)c1I` [Fragment B02290459], the “AAK1 (STD-NMR hit flag)” value at AAK1 (121-471) is listed as 1. For the same molecule, the “CAMK1G (STD-NMR hit flag)” value at CAMK1G (1-320) came to 1. The “IDO1 (STD-NMR hit flag)” value at IDO1 (1-435) was determined as 1. Besides, the “DOT1L (STD-NMR hit flag)” value on DOT1L (1-416) is 1.
On to `O=c1[nH]cc(Cl)cc1[N+](=O)[O-]` [Fragment B02290460], for which the “AAK1 (STD-NMR hit flag)” value on AAK1 (121-471) was 0. In addition, the “CAMK1G (STD-NMR hit flag)” value at CAMK1G (1-320) stood at 1. Besides, the “IDO1 (STD-NMR hit flag)” value on IDO1 (1-435) is listed as 0. Also, the “DOT1L (STD-NMR hit flag)” value at DOT1L (1-416) is on record as 0.
As for `Nc1ncc(Br)s1` [Fragment B02290461], the “AAK1 (STD-NMR hit flag)” value at AAK1 (121-471) is listed as 0. Also, the “CAMK1G (STD-NMR hit flag)” value at CAMK1G (1-320) turned out to be 0. The “IDO1 (STD-NMR hit flag)” value on IDO1 (1-435) is reported as 0. The “DOT1L (STD-NMR hit flag)” value at DOT1L (1-416) came out at 0.
Consider `Brc1nnc2n1CCNC2` [Fragment B02290462], for which the “AAK1 (STD-NMR hit flag)” value on AAK1 (121-471) amounted to 0. On CAMK1G (1-320), the “CAMK1G (STD-NMR hit flag)” value worked out at 0. Moreover, the “IDO1 (STD-NMR hit flag)” value at IDO1 (1-435) was determined as 0. At DOT1L (1-416), the “DOT1L (STD-NMR hit flag)” value is 0.
For the molecule `O=C(O)c1n[nH]cc1Br` [Fragment B02290463], on AAK1 (121-471), the “AAK1 (STD-NMR hit flag)” value stood at 0. The “CAMK1G (STD-NMR hit flag)” value at CAMK1G (1-320) was found to be 0. In addition, on IDO1 (1-435), the “IDO1 (STD-NMR hit flag)” value was 0. Further, the “DOT1L (STD-NMR hit flag)” value on DOT1L (1-416) was found to be 0.
As for `N#Cc1n[nH]cc1Br` [Fragment B02290464], at AAK1 (121-471), the “AAK1 (STD-NMR hit flag)” value was found to be 1. For the same molecule, the “CAMK1G (STD-NMR hit flag)” value at CAMK1G (1-320) is recorded as 1. Further, the “IDO1 (STD-NMR hit flag)” value at IDO1 (1-435) was found to be 1. In addition, the “DOT1L (STD-NMR hit flag)” value at DOT1L (1-416) came out at 0.
For `Cn1c(Cl)cc(=O)n(C)c1=O` [Fragment B02290465], the “AAK1 (STD-NMR hit flag)” value on AAK1 (121-471) was found to be 1. The “CAMK1G (STD-NMR hit flag)” value on CAMK1G (1-320) is 0. At IDO1 (1-435), the “IDO1 (STD-NMR hit flag)” value was determined as 0. Besides, on DOT1L (1-416), the “DOT1L (STD-NMR hit flag)” value is 0.
Regarding `O=C(O)c1ccc(Cl)o1` [Fragment B02290466], at AAK1 (121-471), the “AAK1 (STD-NMR hit flag)” value came out at 0. Moreover, at CAMK1G (1-320), the “CAMK1G (STD-NMR hit flag)” value amounted to 0. In addition, the “IDO1 (STD-NMR hit flag)” value on IDO1 (1-435) is recorded as 0. Moreover, the “DOT1L (STD-NMR hit flag)” value on DOT1L (1-416) was found to be 0.
Turning to `O=C1Nc2c(Cl)cccc2C1=O` [Fragment B02290467], the “AAK1 (STD-NMR hit flag)” value at AAK1 (121-471) is listed as 0. Moreover, the “CAMK1G (STD-NMR hit flag)” value at CAMK1G (1-320) is recorded as 0. The “IDO1 (STD-NMR hit flag)” value at IDO1 (1-435) worked out at 0. The “DOT1L (STD-NMR hit flag)” value at DOT1L (1-416) was determined as 0.
For the molecule `Clc1cnc2nn[nH]c2c1` [Fragment B02290468], the “AAK1 (STD-NMR hit flag)” value at AAK1 (121-471) is 0. At CAMK1G (1-320), the “CAMK1G (STD-NMR hit flag)” value is 0. Moreover, the “IDO1 (STD-NMR hit flag)” value at IDO1 (1-435) stood at 0. Besides, the “DOT1L (STD-NMR hit flag)” value at DOT1L (1-416) is recorded as 0.
Regarding `O=C(O)c1cc(Cl)nnc1Cl` [Fragment B02290470], the “AAK1 (STD-NMR hit flag)” value on AAK1 (121-471) worked out at 0. At CAMK1G (1-320), the “CAMK1G (STD-NMR hit flag)” value was 0. Further, the “IDO1 (STD-NMR hit flag)” value on IDO1 (1-435) amounted to 0. At DOT1L (1-416), the “DOT1L (STD-NMR hit flag)” value was 0.
Regarding `Nc1c(Cl)ccc(O)c1Cl` [Fragment B02290471], the “AAK1 (STD-NMR hit flag)” value on AAK1 (121-471) worked out at 1. The “CAMK1G (STD-NMR hit flag)” value at CAMK1G (1-320) was found to be 0. On IDO1 (1-435), the “IDO1 (STD-NMR hit flag)” value stood at 0. The “DOT1L (STD-NMR hit flag)” value on DOT1L (1-416) was 0.
As to `Nc1ncnc(C(=O)O)c1Cl` [Fragment B02290472], the “AAK1 (STD-NMR hit flag)” value on AAK1 (121-471) worked out at 0. Also, the “CAMK1G (STD-NMR hit flag)” value at CAMK1G (1-320) is 0. Also, the “IDO1 (STD-NMR hit flag)” value on IDO1 (1-435) is recorded as 0. For the same molecule, at DOT1L (1-416), the “DOT1L (STD-NMR hit flag)” value came out at 0.
For `Fc1cnccc1I` [Fragment B02290473], at AAK1 (121-471), the “AAK1 (STD-NMR hit flag)” value was determined as 1. The “CAMK1G (STD-NMR hit flag)” value at CAMK1G (1-320) is 1. Also, the “IDO1 (STD-NMR hit flag)” value on IDO1 (1-435) came to 0. For the same molecule, the “DOT1L (STD-NMR hit flag)” value on DOT1L (1-416) turned out to be 0.
